Measured values from patent US7785850B2, “Heterologus expression of trypanothione reductase from Leishmania donovani in a prokaryotic system” (priority 2004, dated 2010).

Key:
[1] = target: T1, recombinant Leishmania donovani Trypanothione Reductase (LDdTR) (Leishmania donovani, UniProt P39050, S2A); experiment: biochemical
T1 construct: GST (pET-41a vector fusion) (N, cleaved yes); made in house; host or cells: E. coli BL21(DE3), pET41a (clone LddTRpET41aDE3)
Procedure: Trypanothione reductase activity was routinely assayed spectrophotometrically at 340 nm, as previously described (25). The reaction mixture contained 100 mM HEPES pH 7.8, 20 μM EDTA, 80 μM NADPH and 50 μM TS2. The reaction was allowed to proceed for 5 min. and change in O.D. was monitored every after 30 sec. One unit of enzyme activity is defined, as that amount of enzyme required to convert 1 μmol of NADPH to NADP per minute at 25° C. […] For comparative kinetic studies, assay was performed at 50 μM NADPH and varying concentration of TS2 (20, 40, 60, 80 & 100) and at 50 μM TS2 and varying concentration of NADPH (20, 40, 60, 80, 100 & 150).

[2] = target: T2, recombinant Leishmania donovani Trypanothione Reductase (Leishmania donovani, UniProt P39050, S2A); experiment: Enzyme assay, kinetics and substrate specificity of recombinant purified trypanothione reductase; type: biochemical; details: for Km / Vmax: TS2 varied at 50 μM NADPH, NADPH varied at 50 μM TS2
T2 construct: GST (pET-41a vector fusion) (N, cleaved yes); made in house; host or cells: E. coli BL21(DE3), pET41a (clone LddTRpET41aDE3)
Procedure: Trypanothione reductase activity was routinely assayed spectrophotometrically at 340 nm, as previously described (25). The reaction mixture contained 20-100 mM HEPES pH 7.2-7.8, 20 μM-1 mM EDTA, 80-200 μM NADPH and 15-50 μM TS2. One unit of enzyme activity is defined as that amount of enzyme required to convert 1 μmol of NADPH to NADP per minute at 25° C. Protein was assayed according to the method of Bradford (1976) as supplied by Bangalore Genei with Bovine serum albumin as a standard. For comparative kinetic studies, assay was performed at 50 μM NADPH and at 5-100 μM concentrations of TS2 and at 50 μM TS2 and at 10-200 μM concentrations of NADPH.
Trypanothione reductase activity was routinely assayed spectrophotometrically at 340 nm, as previously described (25). The reaction mixture contained 100 mM HEPES pH 7.8, 20 μM EDTA, 80 μM NADPH and 50 μM TS2. The reaction was allowed to proceed for 5 min. and change in O.D. was monitored every after 30 sec. One unit of enzyme activity is defined, as that amount of enzyme required to convert 1 μmol of NADPH to NADP per minute at 25° C. The purified recombinant enzyme has a specific activity of 12.5 U/mg. protein. Purification procedure leads to 20 fold purification from the soluble content of E. coli lysate. The total yield was 16 mg/lit (FIG. 7 describes the fold purification of Recombinant Leishmania donovani Trypanothione Reductase). […] For comparative kinetic studies, assay was performed at 50 μM NADPH and varying concentration of TS2 (20, 40, 60, 80 & 100) and at 50 μM TS2 and varying concentration of NADPH (20, 40, 60, 80, 100 & 150).

Compound | Km [2] | Vmax [2] | Substrate specificity (reduction catalyzed by purified protein) [2] | further results
Nc1nc(N)nc(Nc2ccc([As]=O)cc2)n1 (centres unmarked) [Melarsen Oxide, Melarsen oxide] | – | – | – | inhibition at 50 µM ([1]; read-out: Inhibition of TR): > 95%
NC(=O)C1=CN([C@@H]2O[C@H](COP(=O)(O)OP(=O)(O)OC[C@H]3O[C@@H](n4cnc5c(N)ncnc54)[C@H](OP(=O)(O)O)[C@@H]3O)[C@@H](O)[C@H]2O)C=CC1 [NADPH, Nicotinidine adenine dinucleotide phosphate] | 20 µM | 125 μM/ml/min | – | –
O.O.O.O=C([O-])[C@H]([O-])[C@@H]([O-])C(=O)[O-].O=C([O-])[C@H]([O-])[C@@H]([O-])C(=O)[O-].[K+].[K+].[Sb+3].[Sb+3] [SbIII, Potassium antimony tartrate] | – | – | – | Effect on TR activity (in words) ([1]; studied at 50 and 100 μM concentration): profound effect on TR activity in comparison to SAG
N[C@@H](CCC(=O)N[C@H]1CSSC[C@H](NC(=O)CC[C@H](N)C(=O)O)C(=O)NCC(=O)NCCCNCCCCNC(=O)CNC1=O)C(=O)O [TS2, Oxidized Trypanothione] | 50 µM | 200 μM/ml/min | specifically catalyzed reduction | –
Oxidised Glutathione [oxidized glutathione] | – | – | did not catalyze reduction | –
